# Test system: human prostate cancer cell lines—LNCaP cells
# Assay: In vitro mode adjunctive treatment activity assay with Taxol (MTT cell survival)
# Format: cell-based
# Conditions: 2 nM Taxol alone
# Protocol: Utilize in vitro filter mode for human prostate cancer cell lines—LNCaP cells. Where human prostate cancer cell lines—LNCaP cells is being cultured in the culture medium which is supplemented by fetalbovine serum for 24 hours, and process cells by Taxol for 72 hours, and then change the culture medium so as to culture it in a new culture medium by adding assay sample for 72 hours, afterwards evaluate the cell survival rate by MIT colorimetric analysis method.
# ※ The assay analysis of the compositions in accordance with the present invention in effect for suppressing the growth of human prostate cancer cells, wherein it is necessary to compute the cell survival rate for cells in each well of 96-well microplate, afterwards evaluate the cancer cells survival rate by MIT colorimetric analysis method.
# ※ MTT colorimetric analysis method: MTT is a kind of tertrazolium salt, with a full name of 3-[4,5-Dimenthylthialzol-2-yl]2, 5-diphenyltetrazoliumbromide, which is the yellow dye, capable to be absorbed by live cells and also be reduced to blue color formazan by succinate-tetrazoliumreductase in mitochondrion, which is commonly used for filtering the affection for matters to the growth and proliferation of cells.
compound,measurement,value
CC(=O)O[C@H]1C(=O)[C@@]2(C)[C@H]([C@H](OC(=O)c3ccccc3)[C@]3(O)C[C@H](OC(=O)[C@H](O)[C@@H](NC(=O)c4ccccc4)c4ccccc4)C(C)=C1C3(C)C)[C@]1(OC(C)=O)CO[C@@H]1C[C@@H]2O [Taxol],cell survival rate for human prostate cancer cells,56.4%
